Each structure is given as a SMILES string.

Results on 35 compounds are retold here after US20190022039A1, “COMPOUND HAVING ENHANCING ACTIVITY FOR GLUCAGON-LIKE PEPTIDE-1 RECEPTOR ACTIONS” (AJINOMOTO CO., INC., priority 2016, published 2019).

In the assay the target is T1, human GLP-1R (Homo sapiens, UniProt P43220).
T1 construct: expressed in transfected cells; host or cells: PEAK RAPID-derived Gα15-trans48 LD stably expressing cells (PRG48), transiently transfected with Lipofectamine 2000
Kind of assay: GLP-1 receptor in vitro calcium assay (intracellular free calcium concentration change induced via GLP-1 receptor). The assay is classed as cell-based. The settings on record: for EC50: PRG48 cells transfected with human GLP-1R, compound added with 250 pM GLP-1, Ca2+ response ΔF/F, read-out: Ca EC50 value; for GLP-1 receptor action enhancing activity (vs BETP): intensity compared to BETP, activity of BETP as 1. The method, then: The supernatant was removed by centrifugation (1,200 rpm, 3 min), and the cells were suspended at 4×10^6 cells/mL in 5% FBS DMEM/Ham's F-12. 1.0 mL thereof was seeded in a 15 cm dish and cultured (37° C., 5% CO2) overnight. The next day, the medium of the cultured PRG48 cells was replaced with 5% FBS DMEM/Ham's F-12 medium (30 mL), human GLP-1R gene mixture solution (GLP-1R/pc.DNA3.1(+) 60 μg) prepared using 6.0 mL of Opti-MEM (invitrogen) and 120 μL of Lipofectamin 2000 (invitrogen) was slowly added to the cells, and cultured (37° C., 5% CO2) for 6 hr to introduce the gene. […] The cells were counted, suspended at 0.5×10^6 cells/mL in 5% FBS DMEM/Ham's F-12 medium, and seeded in each well of D-Lysine coat 96 well plate (BD Bioscience) at 7.0×10^4 cells. After static adhesion at room temperature for 1 hr, the cells were cultured overnight (37° C., 5% CO2). The medium in the Cultured 96 well was entirely discarded, 150 μL of intracellular calcium measurement staining solution Calcium assay kit Express (Molecular Device) diluted 80-fold with Assay buffer (20 mM HEPES, 146 mM NaCl, 1 mM MgSO4, 1.39 mM glucose, 1 mM CaCl2, 2.5 mM Probenecid, 0.05% Casein Enzymatic Hydrolysate) was added, and the mixture was stood at 37° C. for 30 min, and then at room temperature for 45 min to perform staining. After staining, 250 pM GLP-1 and the compound were added and Ca^2+ response was observed by using FDSSμCELL (Hamamatsu Photonics K.K.). Each evaluation compound was dissolved in DMSO, further diluted with Assay buffer and used.
For evaluation, the fluorescence values (Ex480:Em540) before and after addition were measured, and changes in the intracellular free calcium concentration produced via GLP-1R receptor by the addition were quantitatively examined. For the measurement and analysis of the fluorescence values, a soft (FDSS7000EX) attached to the FDSSμCELL was used, and ΔF/F value ((maximum fluorescence value after stimulation−minimum fluorescence value after stimulation)/fluorescence value before stimulation) was calculated. Using the obtained ΔF/F values, EC50 value was calculated by Prism5.

T1 sequence (P43220 24-463): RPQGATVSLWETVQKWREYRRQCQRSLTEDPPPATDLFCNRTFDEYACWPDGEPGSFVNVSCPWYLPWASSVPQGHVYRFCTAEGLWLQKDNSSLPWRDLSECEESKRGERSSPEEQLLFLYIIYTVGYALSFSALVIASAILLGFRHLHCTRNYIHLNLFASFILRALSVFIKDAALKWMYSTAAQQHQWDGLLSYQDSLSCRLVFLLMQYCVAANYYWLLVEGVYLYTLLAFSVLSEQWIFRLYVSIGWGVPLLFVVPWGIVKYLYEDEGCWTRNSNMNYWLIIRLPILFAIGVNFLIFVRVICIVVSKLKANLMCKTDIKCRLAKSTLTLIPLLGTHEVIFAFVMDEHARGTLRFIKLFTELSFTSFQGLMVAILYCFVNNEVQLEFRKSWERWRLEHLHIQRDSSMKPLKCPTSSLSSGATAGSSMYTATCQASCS

On to `Cc1ccc(S(=O)(=O)Nc2ccc(NC(=O)N[C@H](Cc3ccccc3)C(=O)NCC(C)(C)C)cc2)cc1` [Compound 4], for which the EC50 (in general, the midpoint of the concentration-response curve) came to 1900 nM and the “GLP-1 receptor action enhancing activity (vs BETP)” value is reported as 13.
For `CC(C)(C)OC(=O)[C@H](Cc1ccccc1)NC(=O)Nc1ccc(NS(=O)(=O)Cc2ccccc2)cc1` [Compound 74] the same measures were 1900 nM and 14.
`Cc1ccc(S(=O)(=O)Nc2ccc(NC(=O)N[C@H](CC3CCCCC3)C(=O)NCCC3CCCCC3)cc2)cc1` [Compound 45]: the EC50 turned out to be 22 nM and the “GLP-1 receptor action enhancing activity (vs BETP)” value stood at 1149.
For the compound `CCCOc1ccc(-c2noc([C@H](Cc3ccccc3)NC(=O)Nc3ccc(NS(=O)(=O)c4ccc(C)cc4)cc3)n2)cc1` [Compound 69], the EC50 was 24 nM and the “GLP-1 receptor action enhancing activity (vs BETP)” value is on record as 1068.
`COc1cc(NC(=O)N[C@H](Cc2ccccc2)C(=O)OC(C)(C)C)ccc1NS(=O)(=O)c1ccc(C)cc1` [Compound 88]: the EC50 was found to be 1300 nM and the “GLP-1 receptor action enhancing activity (vs BETP)” value was 20.
In the same order, the values of `Cc1ccc(S(=O)(=O)Nc2ccc(NC(=O)N[C@H](Cc3ccccc3)C(=O)NCC3CCCCC3)cc2)cc1` [Compound 8] are 500 nM and 50.
On to `CCc1ccc(S(=O)(=O)Nc2ccc(NC(=O)N[C@@H](Cc3ccccc3)C(=O)OC(C)(C)C)cc2)cc1` [Compound 75], for which the EC50 is 620 nM and the “GLP-1 receptor action enhancing activity (vs BETP)” value is 41.
As to `CCCC[C@@H](NC(=O)[C@@H](Cc1ccccc1)NC(=O)Nc1ccc(NS(=O)(=O)c2ccc(C)cc2)cc1)C(=O)OC` [Compound 33], the EC50 amounted to 1500 nM and the “GLP-1 receptor action enhancing activity (vs BETP)” value is listed as 17.
With `Cc1ccc(S(=O)(=O)Nc2ccc(NC(=O)N[C@H](Cc3ccccc3)C(=O)NC[C@H]3CCC4CC3C4(C)C)cc2)cc1` (stereo partly drawn) [Compound 60], the EC50 turned out to be 45 nM and the “GLP-1 receptor action enhancing activity (vs BETP)” value is reported as 560.
In the case of `CC[S+]([O-])c1nc(-c2cccc(OCc3ccccc3)c2)cc(C(F)(F)F)n1` (stereo not drawn) [BETP, 4-(3-benzyloxyphenyl)-2-ethylsulfinyl-6-(trifluoromethyl)pyrimidine, reference compound], the EC50 amounted to 25000 nM and the “GLP-1 receptor action enhancing activity (vs BETP)” value amounted to 1.
Consider `Cc1cccc(S(=O)(=O)Nc2ccc(NC(=O)N[C@@H](Cc3ccccc3)C(=O)OC(C)(C)C)cc2)c1` [Compound 77], for which the EC50 is 1600 nM and the “GLP-1 receptor action enhancing activity (vs BETP)” value stood at 16.
Consider `CC(C)CCCC(C)NC(=O)[C@@H](CC1CCCCC1)NC(=O)Nc1ccc(NS(=O)(=O)c2ccc(N3CCOCC3)nc2)cc1` (stereo partly drawn) [Compound 104, (2R)-3-cyclohexyl-N-(1,5-dimethylhexyl)-2-({4-[(6-morpholino-3-pyridyl)sulfonylamino]phenyl}carbamoylamino)propanamide], for which the EC50 was 480 nM and the “GLP-1 receptor action enhancing activity (vs BETP)” value worked out at 53.
For `Cc1ccc(S(=O)(=O)Nc2ccc(NC(=O)N[C@H](Cc3c[nH]c4ccccc34)C(=O)NC3CCCCCC3)cc2)cc1` [Compound 43] the same measures were 160 nM and 160.
In the case of `CSCCCN(c1ccc(NC(=O)N[C@H](Cc2c[nH]c3ccccc23)C(=O)NC(C)CCCC(C)C)cc1)S(=O)(=O)c1ccc(C(C)(C)C)cc1` (stereo partly drawn) [Compound 112], the EC50 was found to be 11 nM and the “GLP-1 receptor action enhancing activity (vs BETP)” value stood at 2206.
With `CC(C)(C)SCCCCCNC(=O)[C@@H](CC1CCCCC1)NC(=O)Nc1ccc(NS(=O)(=O)c2ccc(C(C)(C)C)cc2)cc1` [Compound 99], the 50% effective concentration (EC50) stood at 150 nM and the “GLP-1 receptor action enhancing activity (vs BETP)” value amounted to 169.
Turning to `CSCCCNC(=O)[C@@H](CC1CCCCC1)NC(=O)Nc1ccc(NS(=O)(=O)c2ccc(C(C)(C)C)cc2)cc1` [Compound 91], the EC50 came out at 56 nM and the “GLP-1 receptor action enhancing activity (vs BETP)” value is given as 446.
In the same order, the values of `Cc1ccc(S(=O)(=O)Nc2ccc(NC(=O)N[C@@H](CC(C)C)C(=O)OC(C)(C)C)cc2)cc1` [Compound 65] are 2000 nM and 13.
In the case of `Cc1ccc(S(=O)(=O)Nc2ccc(NC(=O)N[C@@H](Cc3ccc(OC(C)(C)C)cc3)C(=O)OC(C)(C)C)cc2)cc1` [Compound 66], the EC50 was 740 nM and the “GLP-1 receptor action enhancing activity (vs BETP)” value was 34.
Take `CCCCC(CC)CNC(=O)[C@@H](Cc1ccc(Cl)cc1)NC(=O)Nc1ccc(NS(=O)(=O)c2ccc(C(C)(C)C)cc2)cc1` (stereo partly drawn) [Compound 1, (2R)-2-({4-[(4-tert-butylphenyl)sulfonylamino]phenyl}carbamoylamino)-3-(4-chlorophenyl)-N-(2-ethylhexyl)propanamide]: the EC50 stood at 4.3 nM.
Regarding `CCCCCCCCNC(=O)[C@H](CC1CCCCC1)NC(=O)Nc1ccc(NS(=O)(=O)c2ccc(C(C)(C)C)cc2)cc1` [Compound 57], the EC50 was 3.4 nM and the “GLP-1 receptor action enhancing activity (vs BETP)” value worked out at 7462.
Turning to `CC(C)CCCC(C)NC(=O)[C@@H](Cc1c[nH]c2ccccc12)NC(=O)Nc1cccc(NS(=O)(=O)c2ccc(C(C)(C)C)cc2)c1` (stereo partly drawn) [Compound 94], the EC50 is 180 nM and the “GLP-1 receptor action enhancing activity (vs BETP)” value was 140.
As for `Cc1ccc(S(=O)(=O)Nc2ccc(NC(=O)N[C@H](Cc3ccc(Cl)cc3)C(=O)NCCC3CCCCC3)cc2)cc1` [Compound 46], the 50% effective concentration (EC50) is 16 nM.
With `CCCCCCNC(=O)[C@@H](CCCC)NC(=O)Nc1ccc(NS(=O)(=O)c2ccc(C)cc2)cc1` [Compound 16], the 50% effective concentration (EC50) worked out at 520 nM and the “GLP-1 receptor action enhancing activity (vs BETP)” value came to 49.
In the case of `CCCCCCCCNC(=O)[C@H](Cc1ccc(Cl)cc1)NC(=O)Nc1ccc(NS(=O)(=O)c2ccc(C(C)(C)C)cc2)cc1` [Compound 59], the EC50 was 5.7 nM.
Take `Cc1ccc(S(=O)(=O)Nc2ccc(NC(=O)N[C@H](CC3CCCCC3)C(=O)NC3CCCCCC3)cc2)cc1` [Compound 41]: the EC50 came out at 76 nM and the “GLP-1 receptor action enhancing activity (vs BETP)” value stood at 333.
In the same order, the values of `Cc1ccc(S(=O)(=O)Nc2ccc(NC(=O)N[C@H](Cc3ccccc3)C(=O)NCCc3ccccc3)cc2)cc1` [Compound 13] are 1700 nM and 15.
Consider `Cc1ccc(S(=O)(=O)Nc2ccc(NC(=O)N[C@H](Cc3ccccc3)C(=O)NCc3ccc(C)o3)cc2)cc1` [Compound 32], for which the EC50 was 820 nM and the “GLP-1 receptor action enhancing activity (vs BETP)” value was 31.
In the same order, the values of `Cc1ccc(S(=O)(=O)Nc2ccc(NC(=S)N[C@H](Cc3ccccc3)C(=O)OC(C)(C)C)cc2)cc1` [Compound 68] are 1200 nM and 22.
On to `Cc1ccc(S(=O)(=O)Nc2ccc(NC(=O)N[C@H](Cc3ccc(Cl)cc3)C(=O)NC3CCCCCC3)cc2)cc1` [Compound 42], for which the EC50 was 92 nM.
As for `Cc1ccc(S(=O)(=O)Nc2ccc(NC(=O)N[C@H](Cc3ccccc3)C(=O)NCCC3CCCCC3)cc2)cc1` [Compound 22], the EC50 was determined as 220 nM and the “GLP-1 receptor action enhancing activity (vs BETP)” value came out at 116.
`CCCCCCNC(=O)[C@@H](CC1CCCCC1)NC(=O)Nc1ccc(NS(=O)(=O)c2ccc(C)cc2)cc1` [Compound 18]: the 50% effective concentration (EC50) is 360 nM and the “GLP-1 receptor action enhancing activity (vs BETP)” value is given as 71.
Consider `Cc1ccc(S(=O)(=O)Nc2ccc(NC(=O)N[C@H](Cc3ccccc3)C(=O)NC3CCCCC3)cc2)cc1` [Compound 3], for which the EC50 is 1700 nM and the “GLP-1 receptor action enhancing activity (vs BETP)” value is recorded as 15.
In the case of `CCCCC(CC)CNC(=O)[C@@H](CC(C)C)NC(=O)Nc1ccc(NS(=O)(=O)c2ccc(C)cc2)cc1` (stereo partly drawn) [Compound 37], the EC50 was found to be 180 nM and the “GLP-1 receptor action enhancing activity (vs BETP)” value was found to be 140.
For `Cc1ccc(S(=O)(=O)Nc2ccc(NC(=O)N[C@@H](Cc3ccccc3)C(=O)OC(C)(C)C)cc2)cc1` [Compound 63] the same measures were 1900 nM and 13.
Turning to `CC(C)(C)c1ccc(S(=O)(=O)Nc2ccc(NC(=O)N[C@@H](CC3CCCCC3)c3nc(-c4ccc(OC(F)(F)F)cc4)no3)cc2)cc1` [Compound 84], the EC50 came to 3.4 nM and the “GLP-1 receptor action enhancing activity (vs BETP)” value was found to be 7358.
